Experimental data as given in patent EP0041795A2, “Injectable composition of rapamycin” (AYERST, MCKENNA AND HARRISON INC., priority 1980, dated 1981).

Experiment: Solubility of rapamycin
Type: physicochemical

- solubility in aqueous solutions (aqueous solutions): virtually insoluble
- solubility in surfactants (most surfactants, including the nonionic surfactants): insoluble
- solubility in polyoxyethylated glycerin hydroxy fatty acids (rapamycin per se, polyoxyethylated glycerin hydroxy fatty acids): does not readily go into solution
Compound: CO[C@H]1C[C@@H]2CC[C@@H](C)[C@@](O)(O2)C(=O)C(=O)N2CCCC[C@H]2C(=O)O[C@H]([C@H](C)C[C@@H]2CC[C@@H](O)[C@H](OC)C2)CC(=O)[C@H](C)/C=C(\C)[C@@H](O)[C@@H](OC)C(=O)[C@H](C)C[C@H](C)/C=C/C=C/C=C/1C [Rapamycin]
